# In patent US20120115896A1, “ISOGENIC HUMAN CELL LINES COMPRISING MUTATED CANCER ALLELES AND PROCESS USING THE CELL LINES” (priority 2008, published 2012):
# Read-outs that look alike come from different tables or passages of the source.
# Tests used:
# [1] = tested on: hTERT-HME1 cells carrying EGFR (delE746-A750) KI
# [2] = tested on: hTERT-HME1 cells carrying KRAS (G13D) KI
# [3] = tested on: hTERT-HME1 DKI cells carrying PIK3CA (H1047R) and EGFR (delE746-A750)
# [4] = tested on: hTERT-HME1 cells carrying BRAF (V600E) KI
# [5] = tested on: hTERT-HME1 cells carrying PIK3CA (E545K and H1047R) KI
# [6] = tested on: DLD-1 colorectal cancer cells and derivative clones (DKO-1, DKO-3, DKO-4, PIK3CA WT/mutant); test: Viability (ATP assay) of DLD-1 cells and isogenic KRAS / PIK3CA derivative clones; settings: DLD-1, FIG. 8B
# Method: (§1) Results are expressed as percent of viability compared to cells treated with DMSO only ('control') and represent mean±SD of at least three independent observations.
# (§2) After serial dilutions, 100 μl of drugs in serum free medium were added to cells with a multichannel pipette. Vehicle and medium-only containing wells were added as controls. Plates were incubated at 37° C. in 5% CO2 for 96 h, after which cell viability was assessed by ATP content using the CellTiter-Glo® Luminescent Assay (Promega Madison, Wis.).
# [7] = tested on: HCT 116 colorectal cancer cells and derivative clones (HKh-2, HKe-3, HK2-6, PIK3CA WT/mutant); test: Viability (ATP assay) of HCT 116 cells and isogenic KRAS / PIK3CA derivative clones; settings: HCT 116, FIG. 8A
# Method: as §1, §2
smiles,measurement,setting,value
CC(C)=CCc1c(O)cc(O)c2c1O[C@H](c1ccc(O)cc1)CC2=O [8-Prenylnaringenin],ΔKI EGFR,[1]; Log(M) −3.20,0
same,ΔKI EGFR,[1]; Log(M) −3.68,1.16
same,ΔKI KRAS,[2]; Log(M) −3.20,0.02
same,ΔKI KRAS,[2]; Log(M) −3.68,0
same,ΔKI PIK3CA + EGFR,[3]; Log(M) −3.20,0.02
same,ΔKI PIK3CA + EGFR,[3]; Log(M) −3.68,1.52
same,ΔKI BRAF,[4]; Log(M) −3.20,0.02
same,ΔKI BRAF,[4]; Log(M) −3.68,0.88
same,ΔKI PIK3CA,[5]; Log(M) −3.20,0.02
same,ΔKI PIK3CA,[5]; Log(M) −3.68,0
O=c1cc(-c2ccc(O)cc2)oc2cc(O)cc(O)c12 [Apigenin],ΔKI EGFR,[1]; Log(M) −4.40,0
same,ΔKI EGFR,[1]; Log(M) −4.70,0
same,ΔKI EGFR,[1]; Log(M) −5.00,0
same,ΔKI KRAS,[2]; Log(M) −4.40,0
same,ΔKI KRAS,[2]; Log(M) −4.70,0
same,ΔKI KRAS,[2]; Log(M) −5.00,0
same,ΔKI PIK3CA + EGFR,[3]; Log(M) −4.40,0
same,ΔKI PIK3CA + EGFR,[3]; Log(M) −4.70,0
same,ΔKI PIK3CA + EGFR,[3]; Log(M) −5.00,0
same,ΔKI BRAF,[4]; Log(M) −4.40,−3.18
same,ΔKI BRAF,[4]; Log(M) −4.70,−2.32
same,ΔKI BRAF,[4]; Log(M) −5.00,0
same,ΔKI PIK3CA,[5]; Log(M) −4.40,0
same,ΔKI PIK3CA,[5]; Log(M) −4.70,0
same,ΔKI PIK3CA,[5]; Log(M) −5.00,0
"O=C(NOCC1CC1)c1ccc(F)c(F)c1Nc1ccc(I)cc1Cl [CI-1040, CI-1040 (PD 184352)]",effect on PIK3CA WT/− cells versus isogenic PIK3CA mutant cells,[6],affects to a greater extent
same,effect on PIK3CA mutant cells in combination with everolimus,[6]; with everolimus 10^−7 M,effects comparable to those achievable by the MEK inhibitor alone
same,effect on PIK3CA WT/− cells versus isogenic PIK3CA mutant cells,[7],affects to a greater extent
same,effect on PIK3CA mutant cells in combination with everolimus,[7]; with everolimus 10^−7 M,effects comparable to those achievable by the MEK inhibitor alone
CCN(CC)CCNC(=O)c1cc(Cl)c(N)cc1OC [Metoclopramide],ΔKI EGFR,[1]; Log(M) −3.10,0
same,ΔKI EGFR,[1]; Log(M) −3.35,9.94
same,ΔKI EGFR,[1]; Log(M) −3.57,0
same,ΔKI EGFR,[1]; Log(M) −3.70,0
same,ΔKI EGFR,[1]; Log(M) −3.82,0
same,ΔKI EGFR,[1]; Log(M) −4.05,0
same,ΔKI EGFR,[1]; Log(M) −4.30,0
same,ΔKI EGFR,[1]; Log(M) −4.52,0
same,ΔKI KRAS,[2]; Log(M) −3.10,0
same,ΔKI KRAS,[2]; Log(M) −3.35,0
same,ΔKI KRAS,[2]; Log(M) −3.57,0
same,ΔKI KRAS,[2]; Log(M) −3.70,0
same,ΔKI KRAS,[2]; Log(M) −3.82,0
same,ΔKI KRAS,[2]; Log(M) −4.05,0
same,ΔKI KRAS,[2]; Log(M) −4.30,0
same,ΔKI KRAS,[2]; Log(M) −4.52,0
same,ΔKI PIK3CA + EGFR,[3]; Log(M) −3.10,2.8
same,ΔKI PIK3CA + EGFR,[3]; Log(M) −3.35,0
same,ΔKI PIK3CA + EGFR,[3]; Log(M) −3.57,0
same,ΔKI PIK3CA + EGFR,[3]; Log(M) −3.70,0.2
same,ΔKI PIK3CA + EGFR,[3]; Log(M) −3.82,0
same,ΔKI PIK3CA + EGFR,[3]; Log(M) −4.05,0
same,ΔKI PIK3CA + EGFR,[3]; Log(M) −4.30,0
same,ΔKI PIK3CA + EGFR,[3]; Log(M) −4.52,0
same,ΔKI BRAF,[4]; Log(M) −3.10,−4.48
same,ΔKI BRAF,[4]; Log(M) −3.35,0
same,ΔKI BRAF,[4]; Log(M) −3.57,0
same,ΔKI BRAF,[4]; Log(M) −3.70,−0.66
same,ΔKI BRAF,[4]; Log(M) −3.82,0
same,ΔKI BRAF,[4]; Log(M) −4.05,0
same,ΔKI BRAF,[4]; Log(M) −4.30,0
same,ΔKI BRAF,[4]; Log(M) −4.52,0
same,ΔKI PIK3CA,[5]; Log(M) −3.10,0
same,ΔKI PIK3CA,[5]; Log(M) −3.35,0
same,ΔKI PIK3CA,[5]; Log(M) −3.57,0
same,ΔKI PIK3CA,[5]; Log(M) −3.70,0
same,ΔKI PIK3CA,[5]; Log(M) −3.82,0
same,ΔKI PIK3CA,[5]; Log(M) −4.05,0
same,ΔKI PIK3CA,[5]; Log(M) −4.30,0
same,ΔKI PIK3CA,[5]; Log(M) −4.52,0
O=C1C[C@@H](c2ccc(O)cc2)Oc2cc(O)cc(O)c21 [Naringenin],ΔKI EGFR,[1]; Log(M) −3.05,0
same,ΔKI EGFR,[1]; Log(M) −3.52,0
same,ΔKI EGFR,[1]; Log(M) −4.00,0
same,ΔKI KRAS,[2]; Log(M) −3.05,0
same,ΔKI KRAS,[2]; Log(M) −3.52,0
same,ΔKI KRAS,[2]; Log(M) −4.00,0
same,ΔKI PIK3CA + EGFR,[3]; Log(M) −3.05,0
same,ΔKI PIK3CA + EGFR,[3]; Log(M) −3.52,0
same,ΔKI PIK3CA + EGFR,[3]; Log(M) −4.00,0
same,ΔKI BRAF,[4]; Log(M) −3.05,−0.08
same,ΔKI BRAF,[4]; Log(M) −3.52,0
same,ΔKI BRAF,[4]; Log(M) −4.00,−1.5
same,ΔKI PIK3CA,[5]; Log(M) −3.05,0
same,ΔKI PIK3CA,[5]; Log(M) −3.52,0
same,ΔKI PIK3CA,[5]; Log(M) −4.00,0
Oc1cccc(-c2nc(N3CCOCC3)c3oc4ncccc4c3n2)c1 [PI-103],ΔKI EGFR,[1]; Log(M) −6.00,3.9
same,ΔKI EGFR,[1]; Log(M) −7.00,0
same,ΔKI EGFR,[1]; Log(M) −8.00,0
same,ΔKI KRAS,[2]; Log(M) −6.00,0
same,ΔKI KRAS,[2]; Log(M) −7.00,0
same,ΔKI KRAS,[2]; Log(M) −8.00,0
same,ΔKI PIK3CA + EGFR,[3]; Log(M) −6.00,0
same,ΔKI PIK3CA + EGFR,[3]; Log(M) −7.00,0
same,ΔKI PIK3CA + EGFR,[3]; Log(M) −8.00,0
same,ΔKI BRAF,[4]; Log(M) −6.00,0
same,ΔKI BRAF,[4]; Log(M) −7.00,0
same,ΔKI BRAF,[4]; Log(M) −8.00,0
same,ΔKI PIK3CA,[5]; Log(M) −6.00,0
same,ΔKI PIK3CA,[5]; Log(M) −7.00,0
same,ΔKI PIK3CA,[5]; Log(M) −8.00,0
COc1cc(O)c2c(c1)O[C@H](c1ccc(O)cc1)CC2=O [Sakuranetin],ΔKI EGFR,[1]; Log(M) −3.05,0.02
same,ΔKI EGFR,[1]; Log(M) −3.52,0.78
same,ΔKI KRAS,[2]; Log(M) −3.05,0
same,ΔKI KRAS,[2]; Log(M) −3.52,0
same,ΔKI PIK3CA + EGFR,[3]; Log(M) −3.05,0.04
same,ΔKI PIK3CA + EGFR,[3]; Log(M) −3.52,1.46
same,ΔKI BRAF,[4]; Log(M) −3.05,0.02
same,ΔKI BRAF,[4]; Log(M) −3.52,2.24
same,ΔKI PIK3CA,[5]; Log(M) −3.05,0
same,ΔKI PIK3CA,[5]; Log(M) −3.52,2.4
